Measurements from patent US20240158392A1 (Janssen Biotech, Inc., priority 2021, published 2024).

Target: SIK2 (Homo sapiens, UniProt Q9H0K1)
Assay: SIK2 Enzymatic Assay High Version 2 (High ATP)
Format: biochemical
Conditions: not given
Method: All steps were performed at room temperature. Compounds were pre-plated onto an assay plate using an Echo acoustic dispenser (Labcyte, E550 or E555) at 80 nL per well. Enzyme prepared in assay buffer at 6 nM (2× final concentration) was added at 4 μL per well using the Multidrop Combi (Thermo Fisher—used for all additions in this assay) to the assay plate, spun for 1 min at 1000 rpm (Allegra 6KR Beckman Coulter centrifuge), and incubated with compound for 30 minutes. Assay buffer containing 6 mM ATP and 400 μM HDAC5tide (2× of final concentration for each substrate) was added at 4 μL per well to the assay plate and then spun as above and incubated for 2 hours. […] ADP-Glo Max Reagent (prepared and aliquoted as per manufacturer instructions) was then added at 8 μL per well, spun and incubated for 2 hours. ADP-Glo Max Detection (prepared and aliquoted as per manufacturer instructions) was added at 8 μL per well to the assay plate, which was spun and incubated for 1 hour. The plate is then read on the Pherastar (BMG Labtech) using a luminescence read. Gain is set between 2200-2500.

Chain of SIK2 (Q9H0K1 whole entry, species assumed): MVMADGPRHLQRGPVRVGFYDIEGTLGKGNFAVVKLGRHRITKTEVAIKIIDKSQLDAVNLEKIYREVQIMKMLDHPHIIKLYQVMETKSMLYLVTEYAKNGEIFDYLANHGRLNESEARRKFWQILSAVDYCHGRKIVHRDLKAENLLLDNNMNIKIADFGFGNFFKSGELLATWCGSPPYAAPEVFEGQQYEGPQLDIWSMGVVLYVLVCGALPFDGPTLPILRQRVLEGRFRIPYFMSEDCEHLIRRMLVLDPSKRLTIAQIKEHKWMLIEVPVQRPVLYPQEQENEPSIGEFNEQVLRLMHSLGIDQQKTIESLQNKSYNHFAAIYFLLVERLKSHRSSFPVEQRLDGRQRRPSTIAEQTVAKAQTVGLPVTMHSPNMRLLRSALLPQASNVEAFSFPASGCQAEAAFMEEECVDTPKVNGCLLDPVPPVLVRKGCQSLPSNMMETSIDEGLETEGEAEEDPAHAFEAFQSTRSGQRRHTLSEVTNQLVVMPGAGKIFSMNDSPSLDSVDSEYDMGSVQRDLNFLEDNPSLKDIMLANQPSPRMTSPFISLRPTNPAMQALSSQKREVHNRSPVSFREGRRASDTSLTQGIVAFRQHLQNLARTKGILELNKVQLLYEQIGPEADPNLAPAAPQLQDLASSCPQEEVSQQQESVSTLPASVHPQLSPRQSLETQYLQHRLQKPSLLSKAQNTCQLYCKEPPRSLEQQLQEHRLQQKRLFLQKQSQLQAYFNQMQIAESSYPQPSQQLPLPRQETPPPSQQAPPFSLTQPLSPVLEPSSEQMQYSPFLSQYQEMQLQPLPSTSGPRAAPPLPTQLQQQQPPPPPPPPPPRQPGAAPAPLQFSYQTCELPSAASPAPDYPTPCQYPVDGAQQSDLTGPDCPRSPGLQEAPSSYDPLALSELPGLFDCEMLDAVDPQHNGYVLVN

Compared with `Cc1cc(-c2ccn3nc(Nc4cc(C)nc(C)n4)cc3c2)c(OCC2CNS(=O)(=O)N2)cn1` (racemic) [Example 352, (rac-)-N-(2,6-dimethylpyrimidin-4-yl)-5-[5-[(1,1-dioxo-1,2,5-thiadiazolidin-3-yl)methoxy]-2-methyl-4-pyridyl]pyrazolo[1,5-a]pyridin-2-amine], `Cc1cc(-c2ccn3nc(Nc4cc(C)nc(C)n4)cc3c2)c(OCC2CCS(=O)(=O)N2)cn1` (racemic) [Example 353, (rac-)-N-(2,6-dimethylpyrimidin-4-yl)-5-[5-[(1,1-dioxo-1,2-thiazolidin-3-yl)methoxy]-2-methyl-4-pyridyl]pyrazolo[1,5-a]pyridin-2-amine] is 15-fold higher in IC50: 0.0031 µM for the first, 0.0451 µM for the second.

Going from `Cc1cc(-c2ccn3nc(NC(=O)C4CC4)cc3c2)c(OCC2NCC2(F)F)cn1` (racemic) [Example 469, rac-N-[5-[5-[(3,3-difluoroazetidin-2-yl)methoxy]-2-methyl-4-pyridyl]pyrazolo[1,5-a]pyridin-2-yl]cyclopropanecarboxamide] to `Cc1cc(-c2ccn3nc(NC(=O)C4CC4)cc3c2)c(OCC2NCC23CCOCC3)cn1` (racemic) [Example 472, Racemic-N-[5-[2-methyl-5-(7-oxa-2-azaspiro[3.5]nonan-3-ylmethoxy)-4-pyridyl]pyrazolo[1,5-a]pyridin-2-yl]cyclopropanecarboxamide], the IC50 rises from 0.00448 µM to 0.0263 µM (5.9-fold).

`CC[C@@H]1NC[C@@H]1Oc1cnc(C)cc1-c1ccn2nc(NC(=O)C3CC3)cc2c1` (relative stereo) [Example 453, (*S, *S)—N-[5-[5-(2-ethylazetidin-3-yl)oxy-2-methyl-4-pyridyl]pyrazolo[1,5-a]pyridin-2-yl]cyclopropanecarboxamide] and `Cc1cc(-c2ccn3nc(NC(=O)C4CC4)cc3c2)c(O[C@@H]2CN(C)[C@@H]2C)cn1` (relative stereo) [Example 455, *R, *R—N-[5-[5-(1,2-dimethylazetidin-3-yl)oxy-2-methyl-4-pyridyl]pyrazolo[1,5-a]pyridin-2-yl]cyclopropanecarboxamide] are within 1.5-fold of each other in IC50: 0.0334 µM for the first, 0.0356 µM for the second.

Same assay, conditions: enzyme 6 nM, 6 mM ATP and 400 μM HDAC5tide (each 2× final concentration); 30 minutes pre-incubation, 2 hours; ADP-Glo Max luminescence; read-out: SIK2 high ATP IC50 (μM) (Test Example 2)

First: Cc1cc(-c2ccn3nc(NC(=O)C4CC4)cc3c2)c(OCC2(O)CCC(F)(F)CC2)cn1 (racemic) [Example 188, rac-N-[5-[5-[(4,4-difluoro-1-hydroxy-cyclohexyl)methoxy]-2-methyl-4-pyridyl]pyrazolo[1,5-a]pyridin-2-yl]cyclopropanecarboxamide]
Second: Cc1cc(-c2ccn3nc(NC(=O)C4CC4)cc3c2)c(OCC2(C#N)CCNC2)cn1 (single isomer, unassigned) [Example 210, (*S)—N-[5-[5-[(3-cyanopyrrolidin-3-yl)methoxy]-2-methyl-4-pyridyl]pyrazolo[1,5-a]pyridin-2-yl]cyclopropanecarboxamide]
The IC50 of the first is 16-fold higher: 0.0478 µM for the first, 0.00307 µM for the second. The second is the more potent here.

Compared with `Cc1cc(-c2ccn3nc(Nc4cc(C)nc(C)n4)cc3c2)c(OC[C@](C)(N)C(F)(F)F)cn1` (racemic) [Example 267, (rac-)-5-[5-(2-amino-3,3,3-trifluoro-2-methyl-propoxy)-2-methyl-4-pyridyl]-N-(2,6-dimethylpyrimidin-4-yl)pyrazolo[1,5-a]pyridin-2-amine], `Cc1cc(-c2ccn3nc(Nc4cc(C)nc(C)n4)cc3c2)c(OC[C@H]2CCO[C@H]2C)cn1` (single isomer, unassigned) [Example 206, N-(2,6-dimethylpyrimidin-4-yl)-5-(2-methyl-5-(((2*S,3*R)-2-methyltetrahydrofuran-3-yl)methoxy)pyridin-4-yl)pyrazolo[1,5-a]pyridin-2-amine] is 5.3-fold higher in IC50: 0.00331 µM for the first, 0.0175 µM for the second. The first is the more potent here.

First: Cc1cc(-c2ccn3nc(Nc4cc(C)nc(C)n4)cc3c2)c(OCC2CC(=O)N(C)C2(C)C)cn1 (racemic) [Example 325, (rac)-4-[[4-[2-[(2,6-dimethylpyrimidin-4-yl)amino]pyrazolo[1,5-a]pyridin-5-yl]-6-methyl-3-pyridyl]oxymethyl]-1,5,5-trimethyl-pyrrolidin-2-one]
Second: Cc1cc(-c2ccn3nc(Nc4cc(C)nc(C)n4)cc3c2)c(OCC2CC(=O)N(C)C2)cn1 (racemic) [Example 542, (rac-)-4-[[4-[2-[(2,6-dimethylpyrimidin-4-yl)amino]pyrazolo[1,5-a]pyridin-5-yl]-6-methyl-3-pyridyl]oxymethyl]-1-methyl-pyrrolidin-2-one]
The IC50 of the first is 16-fold lower: 0.00265 µM for the first, 0.0425 µM for the second. The first is the more potent here.

First: CO[C@H]1CN(C)C[C@@H]1COc1cnc(C)cc1-c1ccn2nc(NC(=O)C3CC3)cc2c1 (racemic) [Example 571, (3RS, 4RS)—N-[5-[5-[(4-methoxy-1-methyl-pyrrolidin-3-yl)methoxy]-2-methyl-4-pyridyl]pyrazolo[1,5-a]pyridin-2-yl]cyclopropanecarboxamide]
Second: CO[C@H]1CNC[C@@H]1COc1cnc(C)cc1-c1ccn2nc(NC(=O)C3CC3)cc2c1 (relative stereo) [Example 458, Trans-*R, *R—N-[5-[5-[(4-methoxypyrrolidin-3-yl)methoxy]-2-methyl-4-pyridyl]pyrazolo[1,5-a]pyridin-2-yl]cyclopropanecarboxamide]
The IC50 of the first is 30-fold higher: 0.165 µM for the first, 0.00555 µM for the second.

First: Cc1cc(Nc2cc3cc(-c4cc(O[C@H](C)C#N)ncc4O[C@H]4CC[C@H](O)CC4)ccn3n2)nc(C)n1 (relative stereo) [Example 721, (*R)-2-[[4-[2-[(2,6-dimethylpyrimidin-4-yl)amino]pyrazolo[1,5-a]pyridin-5-yl]-5-(4-hydroxycyclohexoxy)-2-pyridyl]oxy]propanenitrile]
Second: Cc1cc(-c2ccn3nc(Nc4cc(C)nc(C)n4)cc3c2)c(OC[C@@H]2CCO[C@@H]2C)cn1 (single isomer, unassigned) [Example 207, N-(2,6-dimethylpyrimidin-4-yl)-5-(2-methyl-5-(((2*R,3*S)-2-methyltetrahydrofuran-3-yl)methoxy)pyridin-4-yl)pyrazolo[1,5-a]pyridin-2-amine]
The IC50 of the first is 3-fold higher: 0.0261 µM for the first, 0.00878 µM for the second.

First: Cc1cc(-c2ccn3nc(NC(=O)C4CC4)cc3c2)c(OCC(C)(N)C(F)(F)F)cn1 (single isomer, unassigned) [Example 159, (*R)—N-[5-[5-(2-amino-3,3,3-trifluoro-2-methyl-propoxy)-2-methyl-4-pyridyl]pyrazolo[1,5-a]pyridin-2-yl]cyclopropanecarboxamide]
Second: Cc1cc(-c2ccn3nc(NC(=O)C4CC4)cc3c2)c(OC[C@@](C)(O)C(F)(F)F)cn1 (single isomer, unassigned) [Example 189, (*R)—N-(5-(2-methyl-5-(3,3,3-trifluoro-2-hydroxy-2-methylpropoxy)pyridin-4-yl)pyrazolo[1,5-a]pyridin-2-yl)cyclopropanecarboxamide]
The IC50 of the first is 3.4-fold lower: 0.0107 µM for the first, 0.0367 µM for the second. The first is the more potent here.

Compared with `Cc1cc(-c2ccn3nc(NC(=O)C4CC4)cc3c2)c(OCC(C)(N)C(F)(F)F)cn1` (single isomer, unassigned) [Example 160, (*S)—N-[5-[5-(2-amino-3,3,3-trifluoro-2-methyl-propoxy)-2-methyl-4-pyridyl]pyrazolo[1,5-a]pyridin-2-yl]cyclopropanecarboxamide], `Cc1cc(-c2ccn3nc(NC(=O)C4CC4)cc3c2)c(OC[C@](C)(O)C(F)(F)F)cn1` (single isomer, unassigned) [Example 190, (*S)—N-(5-(2-methyl-5-(3,3,3-trifluoro-2-hydroxy-2-methylpropoxy)pyridin-4-yl)pyrazolo[1,5-a]pyridin-2-yl)cyclopropanecarboxamide] is 1.7-fold lower in IC50: 0.0444 µM for the first, 0.0255 µM for the second.

`Cc1cc(-c2ccn3nc(NC(=O)C4CC4)cc3c2)c(OC[C@](C)(O)C2CC2)cn1` (single isomer, unassigned) [Example 193, (*R)—N-(5-(5-(2-cyclopropyl-2-hydroxypropoxy)-2-methylpyridin-4-yl)pyrazolo[1,5-a]pyridin-2-yl)cyclopropanecarboxamide] and `Cc1cc(-c2ccn3nc(NC(=O)C4CC4)cc3c2)c(OC[C@@H](O)C2CCCCC2)cn1` (single isomer, unassigned) [Example 197, (*S)—N-(5-(5-(2-cyclohexyl-2-hydroxyethoxy)-2-methylpyridin-4-yl)pyrazolo[1,5-a]pyridin-2-yl)cyclopropanecarboxamide] are within 1.5-fold of each other in IC50: 0.0234 µM for the first, 0.0195 µM for the second.

Going from `Cc1cc(-c2ccn3nc(NC(=O)C4CC4)cc3c2)c(O[C@@H]2CCC[C@@H](O)C2)cn1` (single isomer, unassigned) [Example 194, trans-N-(5-(5-(((1*R,3*R)-3-hydroxycyclohexyl)oxy)-2-methylpyridin-4-yl)pyrazolo[1,5-a]pyridin-2-yl)cyclopropanecarboxamide] to `Cc1cc(-c2ccn3nc(NC(=O)C4CC4)cc3c2)c(O[C@H]2CCC[C@H](O)C2)cn1` (single isomer, unassigned) [Example 195, trans-N-(5-(5-(((1*S,3*S)-3-hydroxycyclohexyl)oxy)-2-methylpyridin-4-yl)pyrazolo[1,5-a]pyridin-2-yl)cyclopropanecarboxamide], the IC50 falls from 0.0412 µM to 0.0116 µM (3.6-fold).

Compared with `Cc1cc(-c2ccn3nc(Nc4cc(C)nc(C)n4)cc3c2)c(OC[C@@]2(O)CCOC2)cn1` (single isomer, unassigned) [Example 203, (*R)-3-(((4-(2-((2,6-dimethylpyrimidin-4-yl)amino)pyrazolo[1,5-a]pyridin-5-yl)-6-methylpyridin-3-yl)oxy)methyl)tetrahydrofuran-3-ol], `Cc1cc(-c2ccn3nc(NC(=O)C4CC4)cc3c2)c(OC[C@]2(C#N)CCNC2)cn1` (single isomer, unassigned) [Example 211, (*R)—N-[5-[5-[[(3R)-3-cyanopyrrolidin-3-yl]methoxy]-2-methyl-4-pyridyl]pyrazolo[1,5-a]pyridin-2-yl]cyclopropanecarboxamide] is 3.6-fold lower in IC50: 0.0469 µM for the first, 0.013 µM for the second. The second is the more potent here.
